Reference: US8143282B2, “Heterocyclic compounds” (S*BIO Pte Ltd., priority 2005, dated 2012)
Blank lines part the entries; values can stand above or below the compound they belong to.

Legend:
Colo205 cells = experiment: Cell-based proliferation assay for GI50 (CyQUANT), Colo205; conditions: Homo sapiens, COLO 205, 96 h treatment, read-out: Cellular or Growth Inhibition Activity in Colo205 cells, GI50
Procedure: Human colon cancer cell lines (Colo205, HCT116), Ovarian cancer cell line (A2780), Hepatoma cell line (HEP3B), Prostate cancer cell line (PC3) were obtained from ATCC or ECACC. Colo205 cells were cultivated in RPMI 1640 containing 2 mM L-Glutamine, 5% FBS, 1.0 mM Na Pyruvate, 1 U/ml of penicillin and 1 μg of streptomycin. HCT116 cells were cultivated in McCoy's containing RPMI 1640 containing 2 mM L-Glutamine, 5% FBS, 1 U/ml of penicillin and 1 μg of streptomycin. A2780 cells were cultivated in RPMI 1640 containing 2 mM L-Glutamine, 5% FBS, 1 U/ml of penicillin and 1 μg of streptomycin. HEP3B cells were cultivated in EMEM containing 2 mM L-glutamine, 5% FBS, 1% non essential amino acid, 1 mM Na Pyruvate, 1 U/ml of penicillin and 1 μg of streptomycin. PC3 cells were cultivated in F12K, 2 mM L-glutamine, 5% FBS, 1 U/ml of penicillin and 1 μg of streptomycin. PC3, Colo205, and HCT116 cells were seeded in 96-wells plate at 1000, 5000 and 6000 cells per well respectively. A2780 and HEP3B cells were seeded in 96-wells plate at 4000 cells per well respectively. The plates were incubated at 37° C., 5% CO2, for 24 h. Cells were treated with compounds at various concentrations for 96 h. Cell growth was then monitored using CyQUANT® cell proliferation assay (Invitrogen Pte Ltd). Dose response curves were plotted to determine GI50 values for the compounds using XL-fit (ID Business Solution, Emeryville, Calif.). GI50 is defined as the concentration of compound required for 50% inhibition of cell growth.

HDAC1 enzyme = biological target: T1, HDAC1 enzyme (Homo sapiens, UniProt Q13547); experiment: In vitro HDAC assay for determination of IC50 values (BIOMOL fluorescent-based HDAC activity assay); type: biochemical
T1 construct: Amplification of human HDAC1 coding region from this cDNA library was cloned separately into the baculovirus expression pDEST20 vector; made in house; host or cells: SF9 insect cells, pDEST20-HDAC1 baculovirus
Procedure: Human cDNA library was prepared using cultured SW620 cells. Amplification of human HDAC1 coding region from this cDNA library was cloned separately into the baculovirus expression pDEST20 vector (GATEWAY Cloning Technology, Invitrogen Pte Ltd). The pDEST20-HDAC1 construct was confirmed by DNA sequencing. Recombinant baculovirus was prepared using the Bac-To-Bac method following the manufacturer's instruction (Invitrogen Pte Ltd).
Expression of GST-HDAC1 was done by infecting SF9 cells (Invitrogen Pte Ltd) with pDEST20-HDAC1 baculovirus at MOI=1 for 48 h. Soluble cell lysate was incubated with pre-equilibrated Glutathione Sepharose 4B beads (Amersham) at 4° C. for 2 h. The beads were washed with PBS buffer for 3 times. The GST-HDAC1 protein was eluted by elution buffer containing 50 mM Tris, pH8.0, 150 mM NaCl, 1% Triton X-100 and 10 mM or 20 mM reduced Glutathione. The purified GST-HDAC1 protein was dialyzed with HDAC storage buffer containing 10 mM Tris, pH7.5, 100 mM NaCl and 3 mM MgCl2. 20% Glycerol was added to purified GST-HDAC1 protein before storage at −80° C.
The assay has been carried out in 96 well format and the BIOMOL fluorescent-based HDAC activity assay has been applied. […] Flur de lys Developer was added and the reaction was incubated for 10 min. Briefly, deacetylation of the substrate sensitizes it to the developer, which then generates a fluorophore. The fluorophore is excited with 360 nm light and the emitted light (460 nm) is detected on a fluorometric plate reader (Tecan Ultra Microplate detection system, Tecan Group Ltd.).
The analytical software, Prism 4.0 (GraphPad Software Inc) has been used to generate IC50 from a series of data.

T1 sequence (Q13547 whole entry): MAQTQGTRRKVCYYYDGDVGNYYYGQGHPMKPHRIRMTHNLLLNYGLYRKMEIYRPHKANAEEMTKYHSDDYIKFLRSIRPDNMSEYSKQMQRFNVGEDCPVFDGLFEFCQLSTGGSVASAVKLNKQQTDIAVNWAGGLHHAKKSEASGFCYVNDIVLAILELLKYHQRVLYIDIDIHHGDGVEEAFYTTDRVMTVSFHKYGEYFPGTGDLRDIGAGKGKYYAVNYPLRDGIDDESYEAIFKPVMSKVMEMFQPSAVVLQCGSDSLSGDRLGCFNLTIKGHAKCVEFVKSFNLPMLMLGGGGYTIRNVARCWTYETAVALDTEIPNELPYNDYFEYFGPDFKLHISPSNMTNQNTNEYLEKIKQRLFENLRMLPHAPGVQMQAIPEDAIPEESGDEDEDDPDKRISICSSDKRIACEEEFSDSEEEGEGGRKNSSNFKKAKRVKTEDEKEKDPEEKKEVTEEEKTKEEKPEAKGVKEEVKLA

GI50 (Colo205 cells): 2080 nM
IC50 (HDAC1 enzyme): 540 nM
SMILES: CCCCN1CCCC(n2cnc3cc(/C=C/C(=O)NO)ccc32)C1 (centres unmarked) [Compound 102, (E)-3-(1-(1-butylpiperidin-3-yl)-1H-benzo[d]imidazol-5-yl)-N-hydroxyacrylamide]

GI50 (Colo205 cells): 680 nM
IC50 (HDAC1 enzyme): 160 nM
SMILES: CC(C)CN(CCn1cnc2cc(/C=C/C(=O)NO)ccc21)CC(C)C [Compound 125, (E)-3-(1-(2-(diisobutylamino)ethyl)-1H-benzo[d]imidazol-5-yl)-N-hydroxyacrylamide]

GI50 (Colo205 cells): 150 nM
IC50 (HDAC1 enzyme): 37 nM
SMILES: CN(CCn1cnc2cc(/C=C/C(=O)NO)ccc21)CCC(C)(C)C [Compound 122, 3-(1-{2-[(3,3-Dimethyl-butyl)-methyl-amino]-ethyl}-1H-benzoimidazol-5-yl)-N-hydroxy-acrylamide]

GI50 (Colo205 cells): 490 nM
IC50 (HDAC1 enzyme): 79 nM
SMILES: CC(C)CCN(CCn1cnc2cc(/C=C/C(=O)NO)ccc21)C(C)C [Compound 121, N-Hydroxy-3-(1-{2-[isopropyl-(3-methyl-butyl)-amino]-ethyl}-1H-benzoimidazol-5-yl)-acrylamide]

GI50 (Colo205 cells): 540 nM
IC50 (HDAC1 enzyme): 85 nM
SMILES: CC(C)(C)CCN(CCn1cnc2cc(/C=C/C(=O)NO)ccc21)CCC(C)(C)C [Compound 124, (E)-3-(1-(2-(bis(3,3-dimethylbutyl)amino)ethyl)-1H-benzo[d]imidazol-5-yl)-N-hydroxyacrylamide]

GI50 (Colo205 cells): 700 nM
IC50 (HDAC1 enzyme): 80 nM
SMILES: O=C(/C=C/c1ccc2c(c1)ncn2C1CCCN(CCc2ccccc2)C1)NO (centres unmarked) [Compound 96, (E)-N-hydroxy-3-(1-(1-phenethylpiperidin-3-yl)-1H-benzo[d]imidazol-5-yl)acrylamide]

GI50 (Colo205 cells): 2400 nM
IC50 (HDAC1 enzyme): 60 nM
SMILES: CCCCc1nc2cc(/C=C/C(=O)NO)ccc2n1CCN(CC)CCCO [Compound 91, 3-(2-Butyl-1-{2-[ethyl-(3-hydroxy-propyl)-amino]-ethyl}-1H-benzoimidazol-5-yl)-N-hydroxy-acrylamide]

GI50 (Colo205 cells): 1960 nM
IC50 (HDAC1 enzyme): 100 nM
SMILES: CCCCN(CCn1cnc2cc(/C=C/C(=O)NO)ccc21)CC(F)(F)F [Compound 138, 3-(1-{2-[Butyl-(2,2,2-trifluoro-ethyl)-amino]-ethyl}-1H-benzoimidazol-5-yl)-N-hydroxy-acrylamide]

GI50 (Colo205 cells): 490 nM
IC50 (HDAC1 enzyme): 110 nM
SMILES: CCCN(CCC)CCn1cnc2cc(/C=C/C(=O)NO)ccc21 [Compound 120, 3-[1-(2-Dipropylamino-ethyl)-1H-benzoimidazol-5-yl]-N-hydroxy-acrylamide]

GI50 (Colo205 cells): 260 nM
IC50 (HDAC1 enzyme): 74 nM
SMILES: CCc1nc2cc(/C=C/C(=O)NO)ccc2n1CCNCCC(C)(C)C [Compound 135, 3-{1-[2-(3,3-Dimethyl-butylamino)-ethyl]-2-ethyl-1H-benzoimidazol-5-yl}-N-hydroxy-acrylamide]

GI50 (Colo205 cells): 770 nM
IC50 (HDAC1 enzyme): 180 nM
SMILES: CCCCN(CCCC)CCn1c(CCC)nc2cc(/C=C/C(=O)NO)ccc21 [Compound 119, (E)-3-(1-(2-(dibutylamino)ethyl)-2-propyl-1H-benzo[d]imidazol-5-yl)-N-hydroxyacrylamide]

GI50 (Colo205 cells): 3900 nM
IC50 (HDAC1 enzyme): 770 nM
SMILES: CSc1nc2cc(/C=C/C(=O)NO)ccc2n1CC(C)(C)CN(C)C [Compound 129, 3-[1-(3-Dimethylamino-2,2-dimethyl-propyl)-2-methylsulfanyl-1H-benzoimidazol-5-yl]-N-hydroxy-acrylamide]

IC50 (HDAC1 enzyme): 320 nM
SMILES: O=C(/C=C/c1ccc2c(c1)ncn2C1CCN(CCCc2ccccc2)C1)NO (centres unmarked) [Compound 98, (E)-N-hydroxy-3-(1-(1-(3-phenylpropyl)pyrrolidin-3-yl)-1H-benzo[d]imidazol-5-yl)acrylamide]

Second part, the compound before the results:

SMILES: CCCCc1nc2cc(/C=C/C(=O)NO)ccc2n1CCN(C)C [Compound 57, 3-[2-Butyl-1-(2-dimethylamino-ethyl)-1H-benzoimidazol-5-yl]-N-hydroxy-acrylamide]
GI50 (Colo205 cells): 650 nM

SMILES: CCCCCc1nc2cc(/C=C/C(=O)NO)ccc2n1C1CCCN(C)C1 (centres unmarked) [Compound 86, N-Hydroxy-3-[1-(1-methyl-piperidin-3-yl)-2-pentyl-1H-benzoimidazol-5-yl]-acrylamide]
GI50 (Colo205 cells): 2080 nM
IC50 (HDAC1 enzyme): 160 nM

SMILES: CCN(CC)CCn1c(CCSC)nc2cc(/C=C/C(=O)NO)ccc21 [Compound 45, 3-[1-(2-Diethylamino-ethyl)-2-(2-methylsulfanyl-ethyl)-1H-benzoimidazol-5-yl]-N-hydroxy-acrylamide]
GI50 (Colo205 cells): 540 nM
IC50 (HDAC1 enzyme): 53 nM

SMILES: CC(C)NCCCn1c(CC(C)(C)C)nc2cc(/C=C/C(=O)NO)ccc21 [Compound 33, 3-[2-(2,2-Dimethyl-propyl)-1-(3-isopropylamino-propyl)-1H-benzoimidazol-5-yl]-N-hydroxy-acrylamide]
GI50 (Colo205 cells): 2110 nM
IC50 (HDAC1 enzyme): 230 nM

SMILES: CCCCc1nc2cc(/C=C/C(=O)NO)ccc2n1CC(C)(C)CN(C)C [Compound 3, 3-[2-Butyl-1-(3-dimethylamino-2,2-dimethyl-propyl)-1H-benzoimidazol-5-yl]-N-hydroxy-acrylamide]
GI50 (Colo205 cells): 2220 nM

SMILES: CCCCc1nc2cc(/C=C/C(=O)NO)ccc2n1C1CCNCC1 [Compound 70, 3-(2-Butyl-1-piperidin-4-yl-1H-benzoimidazol-5-yl)-N-hydroxy-acrylamide]
GI50 (Colo205 cells): 7000 nM
IC50 (HDAC1 enzyme): 68 nM

SMILES: CCCCCCCCc1nc2cc(/C=C/C(=O)NO)ccc2n1CCN [Compound 77, 3-[1-(2-Amino-ethyl)-2-octyl-1H-benzoimidazol-5-yl]-N-hydroxy-acrylamide]
GI50 (Colo205 cells): 670 nM
IC50 (HDAC1 enzyme): 26 nM

SMILES: CC(C)NCCn1c(CCC(F)(F)F)nc2cc(/C=C/C(=O)NO)ccc21 [Compound 53, N-Hydroxy-3-[1-(2-isopropylamino-ethyl)-2-(3,3,3-trifluoro-propyl)-1H-benzoimidazol-5-yl]-acrylamide]
GI50 (Colo205 cells): 1050 nM
IC50 (HDAC1 enzyme): 100 nM

SMILES: CCCCCc1nc2cc(/C=C/C(=O)NO)ccc2n1CCN(CC)CCOC [Compound 84, 3-(1-{2-[Ethyl-(2-methoxy-ethyl)-amino]-ethyl}-2-pentyl-1H-benzoimidazol-5-yl)-N-hydroxy-acrylamide]
GI50 (Colo205 cells): 1030 nM
IC50 (HDAC1 enzyme): 63 nM

SMILES: CC(C)N(CCn1c(CCC(F)(F)F)nc2cc(/C=C/C(=O)NO)ccc21)C(C)C [Compound 34, 3-[1-(2-Diisopropylamino-ethyl)-2-(3,3,3-trifluoro-propyl)-1H-benzoimidazol-5-yl]-N-hydroxy-acrylamide]
GI50 (Colo205 cells): 4400 nM
IC50 (HDAC1 enzyme): 880 nM

SMILES: CC(C)Cc1nc2cc(/C=C/C(=O)NO)ccc2n1CC(C)(C)CN(C)C [Compound 6, 3-[1-(3-Dimethylamino-2,2-dimethyl-propyl)-2-isobutyl-1H-benzoimidazol-5-yl]-N-hydroxy-acrylamide]
GI50 (Colo205 cells): 2690 nM
IC50 (HDAC1 enzyme): 180 nM

SMILES: CCCCCCCC(Cc1nc2cc(/C=C/C(=O)NO)ccc2n1CCN)OC (centres unmarked) [Compound 56, 3-[1-(2-Amino-ethyl)-2-(2-methoxy-nonyl)-1H-benzoimidazol-5-yl]-N-hydroxy-acrylamide]
GI50 (Colo205 cells): 900 nM
IC50 (HDAC1 enzyme): 29 nM

SMILES: CCCCc1nc2cc(/C=C/C(=O)NO)ccc2n1CCN(C(C)C)C(C)C [Compound 43, 3-[2-Butyl-1-(2-diisopropylamimo-ethyl)-1H-benzoimidazol-5-yl]-N-hydroxy-acrylamide]
GI50 (Colo205 cells): 1860 nM
IC50 (HDAC1 enzyme): 330 nM

SMILES: CCCCCCc1nc2cc(/C=C/C(=O)NO)ccc2n1CCN(CC)CC [Compound 31, 3-[1-(2-Diethylamino-ethyl)-2-hexyl-1H-benzoimidazol-5-yl]-N-hydroxy-acrylamide]
GI50 (Colo205 cells): 420 nM
